According to the NIST ThermoML archive (doi:10.1021/je700020t):
± gives the expanded uncertainty stated by the source.

Conditions: 101.33 kPa, Liquid

Row | Compound | mass density (253.15 K) | mass density (263.15 K) | mass density (273.15 K) | mass density (283.15 K) | mass density (293.15 K) | mass density (324.15 K) | mass density (343.15 K) | mass density (358.15 K) | mass density (298.15 K) | mass density (323.15 K) | mass density (363.15 K) | mass density (383.15 K)
1 | CCCI [1-iodopropane] | 1820.9 ± 1.8 kg/m3 | 1802.5 ± 1.7 kg/m3 | 1784.5 ± 1.7 kg/m3 | 1765.9 ± 1.6 kg/m3 | 1747.8 ± 1.5 kg/m3 | 1688.3 ± 1.6 kg/m3 | 1652.2 ± 1.6 kg/m3 | 1622.3 ± 1.7 kg/m3 |  |  |  | 
2 | CCCCI [1-iodobutane] | 1670.9 ± 3.3 kg/m3 | 1655.2 ± 3.2 kg/m3 | 1639.1 ± 3.1 kg/m3 | 1623.7 ± 3 kg/m3 | 1607.6 ± 2.9 kg/m3 |  | 1525.7 ± 2.9 kg/m3 |  | 1599.8 ± 2.9 kg/m3 | 1558.7 ± 2.9 kg/m3 | 1492 ± 2.9 kg/m3 | 1457.2 ± 2.9 kg/m3
